The assay concerns mice. The experiment in a line: Forced swim test (FST). It is filed as in vivo, mouse. Conditions: qualitative result; 0.03 mg/kg dosing, as in Example 8. The text has this:
The forced swim test (FST) is a commonly used paradigm to evaluate antidepressant activity of drugs. The FST is based on measurement of the animal's floating time in a tank filled with water. When rats or mice are forced to swim in a deep cylinder with tepid water they become nearly immobile and cease trying to escape. Without wishing to be bound by any theory, it is believe that this characteristic immobile posture reflects a depressive-like state which is readily influenced by a wide variety of antidepressants. See, e.g., Hedou et al., 2001, Pharmacol, Biochem. Behay. 70:65-76; Chaki et al., 2003, J. Pharmacol. Exp. Ther. 304:818-826; Porsolt et al., 1977, Nature 266:730-732. Antidepressants decrease the immobility time in the FST. Vehicle or test compound can be delivered continuously for two weeks to mice by subcutaneously implanted osmotic pumps prior to the FST. Indeed, any route of administration (e.g., intraperitoneal, subcutaneous, oral and the like) is available. Mice can be placed in the water tank for assessment of climbing, swimming, and immobility over a defined trial session, typically 6 minutes. Test session parameters for mice and rats are typically different, as known in the art.
The forced swim test (FST) is a commonly used paradigm to evaluate antidepressant activity of drugs. […] Specifically, vehicle or test compound was delivered continuously for two weeks to mice by subcutaneously implanted osmotic pumps prior to the FST assay, by methods well known in the art. On day one, the patients were introduced into the tank for a 15 minute pre-swim session. On day two, the patients were placed back into the water tank for assessment of climbing, swimming, and immobility over a 6 minute trial session. The rate of compound infusion was 0.03 mg/kg/day.

Structures are written as SMILES. Numbered stars: 1 amine (or outer) side, 2 acyl side, 3 side chain; on linkers, the order of the positions; unused ones are H or OH. Bridge positions count the residues as written; N and C are the ends. Side chains are listed from the residue outwards. Peptide text beside a SMILES is read from it. * marks the point of attachment. γGlu = O=C(O)[C@H](CCC(=O)[*:2])N[*:1]; Palmitoyl = CCCCCCCCCCCCCCCC(=O)*

Take `CCCCCCCCCCCCCCCC(=O)N[C@@H](CCC(=O)NCCCC[C@H](N)C(=O)N[C@H]1CSSC[C@@H](C(=O)N[C@@H](C)C(=O)N[C@@H](CC(C)C)C(=O)N[C@@H](CCC(N)=O)C(=O)N[C@@H](CCCNC(=N)N)C(=O)N[C@@H](CC(C)C)C(=O)N[C@@H](C)C(=O)N[C@@H](CCC(N)=O)C(=O)N[C@@H](CCC(=O)O)C(=O)N[C@@H](CC(C)C)C(=O)N[C@@H](Cc2c[nH]cn2)C(=O)N[C@@H](CCCNC(=N)N)C(=O)N[C@@H](CC(C)C)C(=O)N[C@@H](CCC(N)=O)C(=O)N[C@H](C(=O)N[C@@H](Cc2ccc(O)cc2)C(=O)N2CCC[C@H]2C(=O)N[C@@H](CCCNC(=N)N)C(=O)N[C@H](C(=O)N[C@@H](CC(N)=O)C(=O)N[C@H](C(=O)NCC(=O)N[C@@H](CO)C(=O)N[C@@H](CC(N)=O)C(=O)N[C@H](C(=O)N[C@@H](Cc2ccc(O)cc2)C(N)=O)[C@@H](C)O)C(C)C)[C@@H](C)O)[C@@H](C)O)NC(=O)[C@H]([C@@H](C)O)NC(=O)[C@H](C)NC(=O)[C@H]([C@@H](C)O)NC(=O)[C@H](CC(N)=O)NC1=O)C(=O)O` [Cmpd 192, [K^1ε-(γ-Glu(Nα-C16-Chain))]-Cmpd 17] (H-K([γGlu-Palmitoyl])CNTATCALQRLAQELHRLQTYPRTNVGSNTY-NH2; disulfide 2-7 (inferred); N-terminus assumed): the “FST Assay, 0.03 mg/kg” value is reported as “Active”.

Consider `CCCCCCCCCCCCCCCC(=O)N[C@@H](CCC(=O)NCCCC[C@H](N)C(=O)N[C@@H](CCCCN)C(=O)N[C@H]1CSSC[C@@H](C(=O)N[C@@H](C)C(=O)N[C@@H](CC(C)C)C(=O)N[C@@H](CCC(N)=O)C(=O)N[C@@H](CCCNC(=N)N)C(=O)N[C@@H](CC(C)C)C(=O)N[C@@H](C)C(=O)N[C@@H](CCC(N)=O)C(=O)N[C@@H](CCC(=O)O)C(=O)N[C@@H](CC(C)C)C(=O)N[C@@H](Cc2c[nH]cn2)C(=O)N[C@@H](CCCNC(=N)N)C(=O)N[C@@H](CC(C)C)C(=O)N[C@@H](CCC(N)=O)C(=O)N[C@H](C(=O)N[C@@H](Cc2ccc(O)cc2)C(=O)N2CCC[C@H]2C(=O)N[C@@H](CCCNC(=N)N)C(=O)N[C@H](C(=O)N[C@@H](CC(N)=O)C(=O)N[C@H](C(=O)NCC(=O)N[C@@H](CO)C(=O)N[C@@H](CC(N)=O)C(=O)N[C@H](C(=O)N[C@@H](Cc2ccc(O)cc2)C(N)=O)[C@@H](C)O)C(C)C)[C@@H](C)O)[C@@H](C)O)NC(=O)[C@H]([C@@H](C)O)NC(=O)[C@H](C)NC(=O)[C@H]([C@@H](C)O)NC(=O)[C@H](CC(N)=O)NC1=O)C(=O)O` [Cmpd 195, Kε-(γ-Glu(Nα-C16-Chain))-Cmpd 17] (H-K([γGlu-Palmitoyl])KCNTATCALQRLAQELHRLQTYPRTNVGSNTY-NH2; disulfide 3-8; N-terminus assumed), for which the “FST Assay, 0.03 mg/kg” value is “Active”.

As for `CCCCCCCCCCCCCCCC(=O)N[C@@H](CCC(=O)NCCCC[C@H](NC(=O)[C@H](CCC(N)=O)NC(=O)[C@H](CC(C)C)NC(=O)[C@H](C)NC(=O)[C@@H]1CSSC[C@H](NC(=O)[C@@H](N)CCCCN)C(=O)N[C@@H](CC(N)=O)C(=O)N[C@@H]([C@@H](C)O)C(=O)N[C@@H](C)C(=O)N[C@@H]([C@@H](C)O)C(=O)N1)C(=O)N[C@@H](CC(C)C)C(=O)N[C@@H](C)C(=O)N[C@@H](CCC(N)=O)C(=O)N[C@@H](CCC(=O)O)C(=O)N[C@@H](CC(C)C)C(=O)N[C@@H](Cc1c[nH]cn1)C(=O)N[C@@H](CCCNC(=N)N)C(=O)N[C@@H](CC(C)C)C(=O)N[C@@H](CCC(N)=O)C(=O)N[C@H](C(=O)N[C@@H](Cc1ccc(O)cc1)C(=O)N1CCC[C@H]1C(=O)N[C@@H](CCCNC(=N)N)C(=O)N[C@H](C(=O)N[C@@H](CC(N)=O)C(=O)N[C@H](C(=O)NCC(=O)N[C@@H](CO)C(=O)N[C@@H](CC(N)=O)C(=O)N[C@H](C(=O)N[C@@H](Cc1ccc(O)cc1)C(N)=O)[C@@H](C)O)C(C)C)[C@@H](C)O)[C@@H](C)O)C(=O)O` [Cmpd 193, [K^11ε(γ-Glu(Nα-C16-Chain))]-Cmpd 17] (H-KCNTATCALQK([γGlu-Palmitoyl])LAQELHRLQTYPRTNVGSNTY-NH2; disulfide 2-7 (inferred); N-terminus assumed), the “FST Assay, 0.03 mg/kg” value is reported as “Inactive”.

As for `CCCCCCCCCCCCCCCC(=O)N[C@@H](CCC(=O)NCCCC[C@H](NC(=O)[C@@H]1CCCN1C(=O)[C@H](Cc1ccc(O)cc1)NC(=O)[C@@H](NC(=O)[C@H](CCC(N)=O)NC(=O)[C@H](CC(C)C)NC(=O)[C@H](CCCNC(=N)N)NC(=O)[C@H](Cc1c[nH]cn1)NC(=O)[C@H](CC(C)C)NC(=O)[C@H](CCC(=O)O)NC(=O)[C@H](CCC(N)=O)NC(=O)[C@H](C)NC(=O)[C@H](CC(C)C)NC(=O)[C@H](CCCNC(=N)N)NC(=O)[C@H](CCC(N)=O)NC(=O)[C@H](CC(C)C)NC(=O)[C@H](C)NC(=O)[C@@H]1CSSC[C@H](NC(=O)[C@@H](N)CCCCN)C(=O)N[C@@H](CC(N)=O)C(=O)N[C@@H]([C@@H](C)O)C(=O)N[C@@H](C)C(=O)N[C@@H]([C@@H](C)O)C(=O)N1)[C@@H](C)O)C(=O)N[C@H](C(=O)N[C@@H](CC(N)=O)C(=O)N[C@H](C(=O)NCC(=O)N[C@@H](CO)C(=O)N[C@@H](CC(N)=O)C(=O)N[C@H](C(=O)N[C@@H](Cc1ccc(O)cc1)C(N)=O)[C@@H](C)O)C(C)C)[C@@H](C)O)C(=O)O` [Cmpd 188, [K^24ε-(γ-Glu(Nα-C16-Chain))]-Cmpd 17] (H-KCNTATCALQRLAQELHRLQTYPK([γGlu-Palmitoyl])TNVGSNTY-NH2; disulfide 2-7 (inferred); N-terminus assumed), the “FST Assay, 0.03 mg/kg” value is “Inactive”.

Consider `CCCCCCCCCCCCCCCC(=O)N[C@@H](CCC(=O)NCCCC[C@H](NC(=O)[C@H](Cc1c[nH]cn1)NC(=O)[C@H](CC(C)C)NC(=O)[C@H](CCC(=O)O)NC(=O)[C@H](CCC(N)=O)NC(=O)[C@H](C)NC(=O)[C@H](CC(C)C)NC(=O)[C@H](CCCNC(=N)N)NC(=O)[C@H](CCC(N)=O)NC(=O)[C@H](CC(C)C)NC(=O)[C@H](C)NC(=O)[C@@H]1CSSC[C@H](NC(=O)[C@@H](N)CCCCN)C(=O)N[C@@H](CC(N)=O)C(=O)N[C@@H]([C@@H](C)O)C(=O)N[C@@H](C)C(=O)N[C@@H]([C@@H](C)O)C(=O)N1)C(=O)N[C@@H](CC(C)C)C(=O)N[C@@H](CCC(N)=O)C(=O)N[C@H](C(=O)N[C@@H](Cc1ccc(O)cc1)C(=O)N1CCC[C@H]1C(=O)N[C@@H](CCCNC(=N)N)C(=O)N[C@H](C(=O)N[C@@H](CC(N)=O)C(=O)N[C@H](C(=O)NCC(=O)N[C@@H](CO)C(=O)N[C@@H](CC(N)=O)C(=O)N[C@H](C(=O)N[C@@H](Cc1ccc(O)cc1)C(N)=O)[C@@H](C)O)C(C)C)[C@@H](C)O)[C@@H](C)O)C(=O)O` [Cmpd 186, [K^18ε-(γ-Glu(Nα-C16-Chain))]-Cmpd 17] (H-KCNTATCALQRLAQELHK([γGlu-Palmitoyl])LQTYPRTNVGSNTY-NH2; disulfide 2-7 (inferred); N-terminus assumed), for which the “FST Assay, 0.03 mg/kg” value is on record as “Inactive”.

With `CCCCCCCCCCCCCCCC(=O)N[C@@H](CCC(=O)NCCCC[C@H](NC(=O)[C@H](CCC(N)=O)NC(=O)[C@H](CC(C)C)NC(=O)[C@H](CCCNC(=N)N)NC(=O)[C@H](Cc1c[nH]cn1)NC(=O)[C@H](CC(C)C)NC(=O)[C@H](CCC(=O)O)NC(=O)[C@H](CCC(N)=O)NC(=O)[C@H](C)NC(=O)[C@H](CC(C)C)NC(=O)[C@H](CCCNC(=N)N)NC(=O)[C@H](CCC(N)=O)NC(=O)[C@H](CC(C)C)NC(=O)[C@H](C)NC(=O)[C@@H]1CSSC[C@H](NC(=O)[C@@H](N)CCCCN)C(=O)N[C@@H](CC(N)=O)C(=O)N[C@@H]([C@@H](C)O)C(=O)N[C@@H](C)C(=O)N[C@@H]([C@@H](C)O)C(=O)N1)C(=O)N[C@@H](Cc1ccc(O)cc1)C(=O)N1CCC[C@H]1C(=O)N[C@@H](CCCNC(=N)N)C(=O)N[C@H](C(=O)N[C@@H](CC(N)=O)C(=O)N[C@H](C(=O)NCC(=O)N[C@@H](CO)C(=O)N[C@@H](CC(N)=O)C(=O)N[C@H](C(=O)N[C@@H](Cc1ccc(O)cc1)C(N)=O)[C@@H](C)O)C(C)C)[C@@H](C)O)C(=O)O` [Cmpd 187, [K^21ε-(γ-Glu(Nα-C16-Chain))]-Cmpd 17] (H-KCNTATCALQRLAQELHRLQK([γGlu-Palmitoyl])YPRTNVGSNTY-NH2; disulfide 2-7 (inferred); N-terminus assumed), the “FST Assay, 0.03 mg/kg” value is recorded as “Inactive”.

The values above are taken from patent US20140249076A1, “AMYLIN-CALCITONIN CHIMERIC PEPTIDES CONJUGATED TO DURATION ENHANCING MOIETIES” (AMYLIN PHARMACEUTICALS, LLC, priority 2011, published 2014).
